Results reported in publication PMC10584170, “Machine learning-based phenotypic imaging to characterise the targetable biology of Plasmodium falciparum male gametocytes for the development of transmission-blocking antimalarials” (PLOS Pathogens, 2023).
Where two headings read alike, the source gives them in different places.

Tests used:
[1] = tested on: P. falciparum male gametocytes; assay: P. falciparum Dual Gamete Formation Assay (PfDGFA), male readout (exflagellation); assay type: cell-based, Plasmodium falciparum NF54; conditions: for Selectivity Ratio M: HepG2 Tox50 versus male IC50; for HitlevelM: number of replicates with >50% inhibition in the male readout
How it was run: (§1)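 Male and female gamete formation were quantified by microscopy image analysis following 24 h incubation of mature NF54 gametocytes with compound and activation at 28°C with xanthurenic acid.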

[2] = tested on: P. falciparum female gametocytes; assay: P. falciparum Dual Gamete Formation Assay (PfDGFA), female readout (Pfs25-positive female gametes); assay type: cell-based, Plasmodium falciparum NF54; conditions: for Selectivity ratio F: HepG2 Tox50 versus female IC50; for HitlevelF: number of replicates with >50% inhibition in the female readout
How it was run: as §1

HepG2 cells = assay: HepG2 cytotoxicity counter-screen; conditions: for Tox50: cytotoxic activity against HepG2 cells
[3] = Plasmodium falciparum, 2µM, 24h preincubation with gametocytes, average of replicates, read-out: Average inhibition male (%)
[4] = Plasmodium falciparum, 2µM, 24h preincubation with gametocytes, replicate R1, read-out: % inhibition male (individual replicates) R1
[5] = Plasmodium falciparum, 2µM, 24h preincubation with gametocytes, replicate R2, read-out: % inhibition male (individual replicates) R2
[6] = Plasmodium falciparum, 2µM, 24h preincubation with gametocytes, replicate R3, read-out: % inhibition male (individual replicates) R3
[7] = Plasmodium falciparum, 2µM, 24h preincubation with gametocytes, replicate R4, read-out: % inhibition male (individual replicates) R4
[8] = Plasmodium falciparum, PfDGFA, 24 h incubation with gametocytes before induction, exflagellation readout, read-out: Male IC50
[9] = Plasmodium falciparum, 2µM, 24h preincubation with gametocytes, average of replicates, read-out: Average inhibition female (%)
[10] = Plasmodium falciparum, 2µM, 24h preincubation with gametocytes, replicate R1, read-out: % inhibition female (individual replicates) R1
[11] = Plasmodium falciparum, 2µM, 24h preincubation with gametocytes, replicate R2, read-out: % inhibition female (individual replicates) R2
[12] = Plasmodium falciparum, 2µM, 24h preincubation with gametocytes, replicate R3, read-out: % inhibition female (individual replicates) R3
[13] = Plasmodium falciparum, 2µM, 24h preincubation with gametocytes, replicate R4, read-out: % inhibition female (individual replicates) R4
[14] = Plasmodium falciparum, PfDGFA, 24 h incubation with gametocytes before induction, female gamete readout, read-out: Female IC50
[15] = 2µM, 24h preincubation with gametocytes, average of replicates
[16] = 2µM, 24h preincubation with gametocytes, replicate R1
[17] = 2µM, 24h preincubation with gametocytes, replicate R3
[18] = 2µM, 24h preincubation with gametocytes, replicate R4
[19] = PfDGFA, 24 h incubation with gametocytes before induction, exflagellation readout, read-out: Male IC50
[20] = PfDGFA, 24 h incubation with gametocytes before induction, female gamete readout, read-out: Female IC50
[21] = PfDGFA at 2µM, 24h preincubation with gametocytes, average of replicates
[22] = PfDGFA at 2µM, 24h preincubation with gametocytes, replicate R1
[23] = PfDGFA at 2µM, 24h preincubation with gametocytes, replicate R3
[24] = PfDGFA at 2µM, 24h preincubation with gametocytes, replicate R4

Row | SMILES | Selectivity Ratio M [1] | IC50 [1, 8] [nM] | Selectivity ratio F [2] | IC50 [2, 14] [nM] | Tox50 (HepG2 cells) [µM] | Average inhibition male (%) [1, 15] [%] | % inhibition male (individual replicates) R1 [1, 16] [%] | % inhibition male (individual replicates) R3 [1, 17] [%] | % inhibition male (individual replicates) R4 [1, 18] [%] | IC50 [1, 19] [nM] | Average inhibition female (%) [2, 15] [%] | % inhibition female (individual replicates) R1 [2, 16] [%] | % inhibition female (individual replicates) R3 [2, 17] [%] | % inhibition female (individual replicates) R4 [2, 18] [%] | IC50 [2, 20] [nM] | also measured
1 | CN1CCC(NCc2ccc(-c3cnc(NCc4ccccc4)nc3)cc2)CC1.O=C(O)C(F)(F)F [TC47] | – | – | – | – | – | – | – | – | – | – | – | – | – | – | – | Cytotox ratio Pf Male [1]: 11.6; IC50 ([1]; this study, read-out: Pf DGFA IC50 MALE): 960 nM; Cytotox ratio Pf Female [2]: 1.7; IC50 ([2]; this study, read-out: Pf DGFA IC50 FEM): 6570 nM; Mean TOX (HepG2 cells; mean of the HepG2 TOX50 values): 11.10 µM
2 | Br.c1cc(C2=NC3CCCCC3N2)ccc1OCCCOc1ccc(C2=NC3CCCCC3N2)cc1 (centres unmarked) [TCMDC-137803] | 32.57 | 1130 | 3.68 | > 10000 | 36.78 | – | – | – | – | – | – | – | – | – | – | inhibition at 2 µM [1, 3]: 96.1%; inhibition at 2 µM [1, 4]: 93.1%; inhibition at 2 µM [1, 5]: 96.3%; inhibition at 2 µM [1, 6]: 92.1%; inhibition at 2 µM [1, 7]: 103%; inhibition at 2 µM [2, 9]: 39.4%; inhibition at 2 µM [2, 10]: 33.6%; inhibition at 2 µM [2, 11]: 49.2%; inhibition at 2 µM [2, 12]: 5.9%; inhibition at 2 µM [2, 13]: 68.9%
3 | CNC(=S)NN=C(C)c1ccccn1 [TCMDC-123475] | 0.29 | – | 0.49 | – | 0.13 | 95.4 | 96.5 | 96.2 | 91.6 | 450 | 52.8 | 38.7 | 43.6 | 50.7 | 270 | –
4 | COc1ccc2nc(-c3cc(-c4ccc(NC(C)=O)cc4)cnc3N)[nH]c2c1 [TCMDC-135365] | 5.74 | 540 | 0.31 | > 10000 | 3.08 | – | – | – | – | – | – | – | – | – | – | HitlevelM ([1]; 2µM, 24h preincubation): 3; inhibition at 2 µM ([1]; Plasmodium falciparum, 2µM, 24h preincubation with gametocytes prior to induction of gametogenesis, average of replicates, read-out: Average inhibition male (%)): 61.3%; inhibition at 2 µM ([1]; Plasmodium falciparum, 2µM, 24h preincubation with gametocytes prior to induction of gametogenesis, replicate R1, read-out: % inhibition male (individual replicates) R1): 62.6%; inhibition at 2 µM ([1]; Plasmodium falciparum, 2µM, 24h preincubation with gametocytes prior to induction of gametogenesis, replicate R2, read-out: % inhibition male (individual replicates) R2): 72.6%; inhibition at 2 µM ([1]; Plasmodium falciparum, 2µM, 24h preincubation with gametocytes prior to induction of gametogenesis, replicate R3, read-out: % inhibition male (individual replicates) R3): 63.7%; inhibition at 2 µM ([1]; Plasmodium falciparum, 2µM, 24h preincubation with gametocytes prior to induction of gametogenesis, replicate R4, read-out: % inhibition male (individual replicates) R4): 46.2%; HitlevelF ([2]; 2µM, 24h preincubation): 0; inhibition at 2 µM ([2]; Plasmodium falciparum, 2µM, 24h preincubation with gametocytes prior to induction of gametogenesis, average of replicates, read-out: Average inhibition female (%)): -1.9%; inhibition at 2 µM ([2]; Plasmodium falciparum, 2µM, 24h preincubation with gametocytes prior to induction of gametogenesis, replicate R1, read-out: % inhibition female (individual replicates) R1): -7.6%; inhibition at 2 µM ([2]; Plasmodium falciparum, 2µM, 24h preincubation with gametocytes prior to induction of gametogenesis, replicate R2, read-out: % inhibition female (individual replicates) R2): 14.6%; inhibition at 2 µM ([2]; Plasmodium falciparum, 2µM, 24h preincubation with gametocytes prior to induction of gametogenesis, replicate R3, read-out: % inhibition female (individual replicates) R3): -10.3%; inhibition at 2 µM ([2]; Plasmodium falciparum, 2µM, 24h preincubation with gametocytes prior to induction of gametogenesis, replicate R4, read-out: % inhibition female (individual replicates) R4): -4.4%
5 | C=CCOc1ccc2ccccc2c1CNCCCCCCNCc1c(OCC=C)ccc2ccccc12.CS(=O)(=O)O [TCMDC-137340] | 1.99 | – | 1.38 | – | 3.85 | – | – | – | – | 1930 | – | – | – | – | 2790 | Average inhibition male (%) [1, 21]: 87.7%; % inhibition male (individual replicates) R1 [1, 22]: 90.7%; % inhibition male (individual replicates) R3 [1, 23]: 68.3%; % inhibition male (individual replicates) R4 [1, 24]: 95.6%; HitlevelM ([1]; 2µM): 4; Average inhibition female (%) [2, 21]: 45.4%; % inhibition female (individual replicates) R1 [2, 22]: 35.2%; % inhibition female (individual replicates) R3 [2, 23]: 31.1%; % inhibition female (individual replicates) R4 [2, 24]: 51.0%; HitlevelF ([2]; 2µM): 2
6 | COc1cc2ccccc2cc1CCNCCCCNCCc1cc2ccccc2cc1OC.CS(=O)(=O)O [TCMDC-137944] | 3.14 | – | 1.14 | – | 3.94 | 96.6 | 97.3 | 93.0 | 97.4 | 1260 | 77.7 | 77.0 | 80.9 | 77.1 | 3470 | –
7 | CN1CCC(N2CCN(Cc3cccc(-c4ccc(-c5nc6cc(C(F)(F)F)ccc6[nH]5)cc4)c3)CC2)CC1.O=C(O)C(F)(F)F [TCMDC-133842] | 3.46 | – | 1.63 | – | 5.34 | – | – | – | – | 1540 | – | – | – | – | 3270 | Average inhibition male (%) [1, 21]: 86.6%; % inhibition male (individual replicates) R1 [1, 22]: 86.4%; % inhibition male (individual replicates) R3 [1, 23]: 71.8%; % inhibition male (individual replicates) R4 [1, 24]: 92.9%; HitlevelM ([1]; 2µM): 4; Average inhibition female (%) [2, 21]: 30.2%; % inhibition female (individual replicates) R1 [2, 22]: 16.8%; % inhibition female (individual replicates) R3 [2, 23]: 18.6%; % inhibition female (individual replicates) R4 [2, 24]: 31.1%; HitlevelF ([2]; 2µM): 1
8 | CN(C)CCN(C)Cc1ccc(-c2ccc3c(Nc4ccc(Oc5ccccc5)cc4)ccnc3c2)o1 [TCMDC-138400] | 3.65 | – | 0.72 | – | 3.45 | 97.6 | 97.3 | 97.8 | 99.6 | 940 | 65.3 | 57.3 | 63.8 | 69.5 | 4780 | –
9 | N=C(N)Nc1nc(-c2ccc(NCc3ccc(CNc4cccc(-c5csc(NC(=N)N)n5)c4)cc3)cc2)cs1 [TCMDC-140699] | 7.68 | – | 2.7 | – | 5.85 | 99.5 | 99.4 | 98.0 | 98.9 | 760 | 56.1 | 34.4 | 32.5 | 82.5 | 2170 | –
10 | [O-][s+]1c(Cl)c(-c2ccc(Cl)cc2)c2ccc(Cl)cc21 (centres unmarked) [TCMDC-124011] | 123.92 | 140 | 125.38 | 140 | 17.6 | – | – | – | – | – | – | – | – | – | – | inhibition at 2 µM [1, 3]: 99.1%; inhibition at 2 µM [1, 4]: 99.4%; inhibition at 2 µM [1, 5]: 99.6%; inhibition at 2 µM [1, 6]: 98.6%; inhibition at 2 µM [1, 7]: 98.9%; inhibition at 2 µM [2, 9]: 46.7%; inhibition at 2 µM [2, 10]: 29.4%; inhibition at 2 µM [2, 11]: 65.7%; inhibition at 2 µM [2, 12]: 37%; inhibition at 2 µM [2, 13]: 54.7%
11 | CCCCOc1ccc(CNCCCCCCNCc2ccc(OCCCC)c3ccccc23)c2ccccc12.CS(=O)(=O)O [TCMDC-137281] | 2.64 | – | 2.64 | – | 1.45 | – | – | – | – | 550 | – | – | – | – | 550 | Average inhibition male (%) [1, 21]: 88.9%; % inhibition male (individual replicates) R1 [1, 22]: 95.9%; % inhibition male (individual replicates) R3 [1, 23]: 90.2%; % inhibition male (individual replicates) R4 [1, 24]: 93.5%; HitlevelM ([1]; 2µM): 4; Average inhibition female (%) [2, 21]: 94.7%; % inhibition female (individual replicates) R1 [2, 22]: 94.0%; % inhibition female (individual replicates) R3 [2, 23]: 97.9%; % inhibition female (individual replicates) R4 [2, 24]: 90.5%; HitlevelF ([2]; 2µM): 4
12 | O=C1Nc2ccccc2C1=NNC(=S)N1CCOCC1 [TCMDC-124263] | 49.26 | 940 | 25.94 | 1780 | 46.3 | – | – | – | – | – | – | – | – | – | – | inhibition at 2 µM [1, 3]: 98.7%; inhibition at 2 µM [1, 4]: 98.4%; inhibition at 2 µM [1, 5]: 100%; inhibition at 2 µM [1, 6]: 99.2%; inhibition at 2 µM [1, 7]: 96.9%; inhibition at 2 µM [2, 9]: 55.9%; inhibition at 2 µM [2, 10]: 38.4%; inhibition at 2 µM [2, 11]: 72%; inhibition at 2 µM [2, 12]: 48.4%; inhibition at 2 µM [2, 13]: 64.6%
